Usually pEC50 stands for the EC50 on a negative log10 scale, so that one unit is a factor of ten.
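Note: lysate dosed with Na-ATP at 0 0.005 0.05 0.5 and 2 mM.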

UniProt Q9NS87, sequence (Q9NS87 whole entry): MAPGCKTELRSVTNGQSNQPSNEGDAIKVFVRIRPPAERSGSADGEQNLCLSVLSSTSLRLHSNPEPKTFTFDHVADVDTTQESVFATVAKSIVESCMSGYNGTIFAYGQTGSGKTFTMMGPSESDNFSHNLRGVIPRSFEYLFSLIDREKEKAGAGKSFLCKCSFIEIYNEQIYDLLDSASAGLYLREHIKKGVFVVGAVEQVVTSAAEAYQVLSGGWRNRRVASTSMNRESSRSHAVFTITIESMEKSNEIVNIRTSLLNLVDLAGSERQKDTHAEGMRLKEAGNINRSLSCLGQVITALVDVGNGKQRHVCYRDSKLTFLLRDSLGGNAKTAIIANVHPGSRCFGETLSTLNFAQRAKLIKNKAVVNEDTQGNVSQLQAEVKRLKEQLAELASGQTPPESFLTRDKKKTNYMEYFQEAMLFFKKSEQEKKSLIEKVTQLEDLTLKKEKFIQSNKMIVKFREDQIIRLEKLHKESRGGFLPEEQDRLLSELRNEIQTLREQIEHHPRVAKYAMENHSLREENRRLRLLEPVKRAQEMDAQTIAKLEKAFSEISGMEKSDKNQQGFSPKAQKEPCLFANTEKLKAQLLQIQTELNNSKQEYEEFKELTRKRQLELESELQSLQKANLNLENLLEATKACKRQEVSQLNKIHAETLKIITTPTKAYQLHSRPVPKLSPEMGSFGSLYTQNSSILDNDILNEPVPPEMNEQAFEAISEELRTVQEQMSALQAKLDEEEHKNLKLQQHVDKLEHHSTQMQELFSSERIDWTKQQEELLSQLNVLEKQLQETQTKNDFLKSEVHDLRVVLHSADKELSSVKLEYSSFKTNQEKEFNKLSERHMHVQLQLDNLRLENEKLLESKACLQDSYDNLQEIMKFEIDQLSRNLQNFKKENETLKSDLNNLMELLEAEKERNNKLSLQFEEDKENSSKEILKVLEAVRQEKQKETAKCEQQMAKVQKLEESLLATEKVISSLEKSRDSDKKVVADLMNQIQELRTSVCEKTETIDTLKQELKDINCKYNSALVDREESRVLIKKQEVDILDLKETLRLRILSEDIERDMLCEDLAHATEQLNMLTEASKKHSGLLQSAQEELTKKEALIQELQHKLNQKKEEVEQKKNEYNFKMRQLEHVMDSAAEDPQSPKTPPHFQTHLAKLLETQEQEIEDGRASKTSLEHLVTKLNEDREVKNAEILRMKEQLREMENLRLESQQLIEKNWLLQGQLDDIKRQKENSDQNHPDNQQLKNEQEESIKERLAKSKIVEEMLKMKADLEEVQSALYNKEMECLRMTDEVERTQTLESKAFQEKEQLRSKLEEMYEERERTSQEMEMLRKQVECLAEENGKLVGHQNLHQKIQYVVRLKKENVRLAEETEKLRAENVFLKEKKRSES
UniProt Q9UJ70, sequence (Q9UJ70 whole entry): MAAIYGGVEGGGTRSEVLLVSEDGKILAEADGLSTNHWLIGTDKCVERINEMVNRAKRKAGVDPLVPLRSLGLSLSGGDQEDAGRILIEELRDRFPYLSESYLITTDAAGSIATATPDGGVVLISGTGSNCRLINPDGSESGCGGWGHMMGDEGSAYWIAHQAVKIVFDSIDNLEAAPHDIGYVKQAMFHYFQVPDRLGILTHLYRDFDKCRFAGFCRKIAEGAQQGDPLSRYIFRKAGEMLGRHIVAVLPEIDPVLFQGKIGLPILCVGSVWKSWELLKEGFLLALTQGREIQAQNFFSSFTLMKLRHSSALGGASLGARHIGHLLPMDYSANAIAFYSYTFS
UniProt P35580, sequence (P35580 whole entry): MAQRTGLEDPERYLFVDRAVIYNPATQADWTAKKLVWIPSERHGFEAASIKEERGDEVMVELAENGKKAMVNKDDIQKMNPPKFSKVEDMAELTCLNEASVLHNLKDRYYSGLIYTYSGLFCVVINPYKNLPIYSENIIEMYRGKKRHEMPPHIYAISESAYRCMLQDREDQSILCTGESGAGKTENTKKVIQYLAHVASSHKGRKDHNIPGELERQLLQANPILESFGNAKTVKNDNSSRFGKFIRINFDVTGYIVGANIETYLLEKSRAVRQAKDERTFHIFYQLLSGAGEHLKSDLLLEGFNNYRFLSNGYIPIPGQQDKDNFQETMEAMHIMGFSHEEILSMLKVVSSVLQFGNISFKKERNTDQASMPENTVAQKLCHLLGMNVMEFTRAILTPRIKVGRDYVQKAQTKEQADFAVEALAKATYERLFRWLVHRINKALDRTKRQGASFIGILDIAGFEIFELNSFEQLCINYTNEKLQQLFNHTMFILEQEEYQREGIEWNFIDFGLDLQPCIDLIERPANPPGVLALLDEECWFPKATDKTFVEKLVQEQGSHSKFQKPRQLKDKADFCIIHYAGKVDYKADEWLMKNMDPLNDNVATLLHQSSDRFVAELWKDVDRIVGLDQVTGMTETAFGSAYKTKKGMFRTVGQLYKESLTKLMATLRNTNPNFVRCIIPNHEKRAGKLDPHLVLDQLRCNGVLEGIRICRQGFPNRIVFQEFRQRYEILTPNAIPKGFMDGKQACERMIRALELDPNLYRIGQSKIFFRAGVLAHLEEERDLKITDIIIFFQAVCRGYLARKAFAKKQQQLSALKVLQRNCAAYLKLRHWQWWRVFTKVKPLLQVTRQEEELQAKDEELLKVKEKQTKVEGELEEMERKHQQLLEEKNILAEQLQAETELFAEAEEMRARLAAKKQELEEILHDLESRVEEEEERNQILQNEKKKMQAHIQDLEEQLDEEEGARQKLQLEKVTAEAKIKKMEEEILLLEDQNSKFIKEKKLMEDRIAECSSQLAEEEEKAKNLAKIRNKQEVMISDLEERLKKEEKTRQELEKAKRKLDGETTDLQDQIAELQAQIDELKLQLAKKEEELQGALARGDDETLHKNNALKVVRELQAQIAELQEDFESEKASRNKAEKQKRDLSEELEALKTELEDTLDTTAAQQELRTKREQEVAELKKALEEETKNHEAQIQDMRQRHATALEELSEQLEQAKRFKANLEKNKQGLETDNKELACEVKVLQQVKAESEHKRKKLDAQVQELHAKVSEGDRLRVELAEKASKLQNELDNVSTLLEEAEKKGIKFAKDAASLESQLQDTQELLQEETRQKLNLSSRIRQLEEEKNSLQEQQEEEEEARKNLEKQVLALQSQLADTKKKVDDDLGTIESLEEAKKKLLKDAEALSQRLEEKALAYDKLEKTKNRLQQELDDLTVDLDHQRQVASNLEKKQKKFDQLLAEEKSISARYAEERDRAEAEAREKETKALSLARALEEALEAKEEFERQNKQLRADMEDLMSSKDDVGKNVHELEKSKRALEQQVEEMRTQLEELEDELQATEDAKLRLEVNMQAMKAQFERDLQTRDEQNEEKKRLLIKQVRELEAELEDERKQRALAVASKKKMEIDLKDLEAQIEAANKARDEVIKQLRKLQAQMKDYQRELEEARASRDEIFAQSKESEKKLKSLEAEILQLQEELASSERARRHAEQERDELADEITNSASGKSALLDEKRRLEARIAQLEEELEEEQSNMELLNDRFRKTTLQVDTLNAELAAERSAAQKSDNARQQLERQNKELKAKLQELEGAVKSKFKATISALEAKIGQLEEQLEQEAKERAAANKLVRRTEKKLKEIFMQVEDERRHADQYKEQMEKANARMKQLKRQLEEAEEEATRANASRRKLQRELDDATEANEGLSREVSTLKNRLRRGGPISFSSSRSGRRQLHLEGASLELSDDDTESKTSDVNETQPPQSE
UniProt P55209, sequence (P55209 whole entry): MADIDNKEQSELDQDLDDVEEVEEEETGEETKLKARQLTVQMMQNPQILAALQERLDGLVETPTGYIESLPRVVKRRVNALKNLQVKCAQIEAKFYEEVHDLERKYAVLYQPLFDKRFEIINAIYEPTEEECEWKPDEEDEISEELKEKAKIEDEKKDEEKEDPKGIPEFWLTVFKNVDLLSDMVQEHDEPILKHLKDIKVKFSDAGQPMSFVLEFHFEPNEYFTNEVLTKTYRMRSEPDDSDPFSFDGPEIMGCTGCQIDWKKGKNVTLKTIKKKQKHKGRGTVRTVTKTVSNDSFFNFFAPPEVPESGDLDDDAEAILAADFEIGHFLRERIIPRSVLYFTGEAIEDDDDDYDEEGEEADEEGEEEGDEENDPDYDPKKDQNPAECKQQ
UniProt Q9Y6K9, sequence (Q9Y6K9 whole entry): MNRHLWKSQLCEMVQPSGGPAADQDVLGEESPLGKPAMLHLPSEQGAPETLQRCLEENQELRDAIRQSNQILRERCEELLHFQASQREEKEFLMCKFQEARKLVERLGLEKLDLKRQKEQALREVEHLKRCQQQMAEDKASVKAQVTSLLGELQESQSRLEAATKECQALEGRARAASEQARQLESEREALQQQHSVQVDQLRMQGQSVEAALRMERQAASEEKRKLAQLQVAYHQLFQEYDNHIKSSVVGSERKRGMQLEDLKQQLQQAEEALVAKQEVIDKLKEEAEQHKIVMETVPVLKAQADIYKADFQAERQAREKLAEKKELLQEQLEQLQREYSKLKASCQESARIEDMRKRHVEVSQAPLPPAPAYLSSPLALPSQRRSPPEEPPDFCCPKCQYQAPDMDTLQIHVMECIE
UniProt O95396, sequence (O95396 whole entry): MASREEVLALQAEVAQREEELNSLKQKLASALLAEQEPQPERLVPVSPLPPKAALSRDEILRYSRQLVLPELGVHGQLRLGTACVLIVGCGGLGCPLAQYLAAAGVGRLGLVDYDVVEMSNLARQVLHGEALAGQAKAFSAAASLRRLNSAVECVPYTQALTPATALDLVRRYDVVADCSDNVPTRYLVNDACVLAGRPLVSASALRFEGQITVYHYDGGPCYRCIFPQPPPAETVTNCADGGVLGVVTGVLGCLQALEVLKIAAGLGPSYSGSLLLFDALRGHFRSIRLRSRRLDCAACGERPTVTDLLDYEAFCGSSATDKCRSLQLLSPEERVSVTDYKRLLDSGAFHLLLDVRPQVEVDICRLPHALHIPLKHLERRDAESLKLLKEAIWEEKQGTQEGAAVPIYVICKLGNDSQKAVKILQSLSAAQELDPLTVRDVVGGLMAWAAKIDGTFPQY

Compound in this assay: Nc1ncnc2c1ncn2[C@@H]1O[C@H](COP(=O)(O)OP(=O)(O)OP(=O)(O)O)[C@@H](O)[C@H]1O [adenosine triphosphate]
The experiment in a line: pEC50 of ATP-induced change in protein thermal stability (2D-TPP). In a few lines: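 pEC50 was obtained by fitting dose-response curves for each replicate over pairs of adjacent temperatures, and hits were assigned using permutation-based false discovery rate control. The input came from Jurkat crude lysate treated with five concentrations including vehicle (10 min, room temperature), heated at 12 temperatures from 42 to 63.9 °C for 3 min, then given NP40 and benzonase (60 min, 4 °C). After ultracentrifugation, soluble protein was quantified by TMT LC-MS/MS as median-normalised fold changes versus vehicle per temperature, across three independent experiments.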
With “HTATSF1 (effect direction: stabilized) (UniProt O43719)”, the pEC50 was less than 2.7.
As for “HUWE1 (effect direction: stabilized) (UniProt Q7Z6Z7)”, the negative logarithm of the EC50 (pEC50) was less than 2.7.
In the case of “IDH3A (effect direction: stabilized) (UniProt P50213)” it was less than 2.7.
In the case of “IKBKG (effect direction: stabilized) (UniProt Q9Y6K9)” it was 3.42; in that of “ILF3 (effect direction: stabilized) (UniProt Q12906)”, 3.13.
With “ILKAP (effect direction: stabilized) (UniProt Q9H0C8)” the figure was less than 2.7; with “IMPA2 (effect direction: destabilized) (UniProt O14732)”, less than 2.7; with “IMPDH1 (effect direction: stabilized) (UniProt P20839)”, 3.32.
Take “IPO5 (effect direction: stabilized) (UniProt O00410)”: the pEC50 was less than 2.7.
Turning to “IPO9 (effect direction: destabilized) (UniProt Q96P70)”, the pEC50 is 3.67.
In the case of “IQGAP1 (effect direction: destabilized) (UniProt P46940)” it was 3.65.
With “IRAK4 (effect direction: stabilized) (UniProt Q9NWZ3)” the figure was 3.3; with “ISG15 (effect direction: stabilized) (UniProt P05161)”, 2.74.
In the case of “ITPK1 (effect direction: stabilized) (UniProt Q13572)” it was 3.89.
For the target “ITPR2 (effect direction: stabilized) (UniProt Q14571)”, the pEC50 is 3.28.
With “JAKMIP1 (effect direction: stabilized) (UniProt Q96N16)” the figure was 3.3; with “JMJD6 (effect direction: stabilized) (UniProt Q6NYC1)”, 3.21; with “KATNA1 (effect direction: stabilized) (UniProt O75449)”, 3.42.
As to “KATNAL1 (effect direction: stabilized) (UniProt Q9BW62)”, the pEC50 stood at 3.26.
In the case of “KIF1B (effect direction: stabilized) (UniProt O60333)” it was 3.68.
With “KIF2C (effect direction: stabilized) (UniProt Q99661)” the figure was 4.18.
As for “KIF3B (effect direction: stabilized) (UniProt O15066)”, the negative-log EC50 (pEC50) is 4.07.
In the case of “KIF5B (effect direction: stabilized) (UniProt P33176)” it was 4.09; in that of “KIF11 (effect direction: stabilized) (UniProt P52732)”, 3.26; in that of “KIF15 (effect direction: stabilized) (UniProt Q9NS87)”, 3.11.
With “KIF20A (effect direction: stabilized) (UniProt O95235)” the figure was 3.14.
In the case of “KIF21B (effect direction: stabilized) (UniProt O75037)” it was 3.38.
For the target “KLC1 (effect direction: stabilized) (UniProt Q07866)”, the pEC50 came to 3.95.
“KLC2 (effect direction: stabilized) (UniProt Q9H0B6)”: the pEC50 amounted to 4.06.
In the case of “KLHDC4 (effect direction: stabilized) (UniProt Q8TBB5)” it was less than 2.7.
Take “KPNB1 (effect direction: stabilized) (UniProt Q14974)”: the negative-log EC50 (pEC50) was 2.96.
In the case of “KRI1 (effect direction: destabilized) (UniProt Q8N9T8)” it was 2.81.
In the case of “LAGE3 (effect direction: stabilized) (UniProt Q14657)” it was 3.86.
With “LARP1 (effect direction: stabilized) (UniProt Q6PKG0)” the figure was less than 2.7.
For the target “LARP7 (effect direction: stabilized) (UniProt Q4G0J3)”, the pEC50 came to 3.03.
In the case of “LARS2 (effect direction: stabilized) (UniProt Q15031)” it was 3.59.
As to “LCLAT1 (effect direction: stabilized) (UniProt Q6UWP7)”, the pEC50 was found to be 3.56.
In the case of “LEMD2 (effect direction: stabilized) (UniProt Q8NC56)” it was 3.8; in that of “LLPH (effect direction: stabilized) (UniProt Q9BRT6)”, less than 2.7.
With “LRPPRC (effect direction: stabilized) (UniProt P42704)”, the pEC50 came out at 3.65.
With “LRWD1 (effect direction: stabilized) (UniProt Q9UFC0)” the figure was 3.85; with “LUC7L2 (effect direction: stabilized) (UniProt Q9Y383)”, 3.22.
In the case of “MACROD1 (effect direction: stabilized) (UniProt Q9BQ69)” it was 3.27.
With “MAGED2 (effect direction: destabilized) (UniProt Q9UNF1)” the figure was 3.7; with “MAP3K4 (effect direction: stabilized) (UniProt Q9Y6R4)”, 3.63; with “MAP4K5 (effect direction: stabilized) (UniProt Q9Y4K4)”, 3.41.
As to “MAPRE1 (effect direction: stabilized) (UniProt Q15691)”, the pEC50 is less than 2.7.
With “MARS2 (effect direction: stabilized) (UniProt Q96GW9)” the figure was 3.24.
In the case of “MCM3 (effect direction: stabilized) (UniProt P25205)” it was 3.53; in that of “MCM5 (effect direction: stabilized) (UniProt P33992)”, 3.59; in that of “MDH1 (effect direction: stabilized) (UniProt P40925)”, 5.
Turning to “MDH2 (effect direction: stabilized) (UniProt P40926)”, the negative logarithm of the EC50 (pEC50) stood at 2.78.
With “MDP1 (effect direction: destabilized) (UniProt Q86V88)” the figure was less than 2.7.
With “MED20 (effect direction: stabilized) (UniProt Q9H944)” the figure was less than 2.7; with “MEPCE (effect direction: stabilized) (UniProt Q7L2J0)”, 2.82; with “MIER1 (effect direction: stabilized) (UniProt Q8N108)”, less than 2.7.
With “MLKL (effect direction: stabilized) (UniProt Q8NB16)” the figure was 3.44.
In the case of “MOB2 (effect direction: stabilized) (UniProt Q70IA6)”, the pEC50 was determined as 3.21.
In the case of “MOCS3 (effect direction: stabilized) (UniProt O95396)” it was 3.95.
In the case of “MOV10 (effect direction: destabilized) (UniProt Q9HCE1)” it was 3.24; in that of “MRPL2 (effect direction: destabilized) (UniProt Q5T653)”, 3.46.
In the case of “MRPL19 (effect direction: destabilized) (UniProt P49406)” it was 4.49; in that of “MRPL30 (effect direction: destabilized) (UniProt Q8TCC3)”, 3.37; in that of “MRPS6 (effect direction: destabilized) (UniProt P82932)”, 3.58.
For the target “MRPS22 (effect direction: destabilized) (UniProt P82650)”, the pEC50 worked out at 4.46.
With “MRPS23 (effect direction: destabilized) (UniProt Q9Y3D9)” the figure was 3.89; with “MRTO4 (effect direction: destabilized) (UniProt Q9UKD2)”, less than 2.7.
With “MSI2 (effect direction: stabilized) (UniProt Q96DH6)” the figure was less than 2.7; with “MSN (effect direction: destabilized) (UniProt P26038)”, 3.04.
In the case of “MTHFD1L (effect direction: stabilized) (UniProt Q6UB35)” it was 3.33.
On to “MTHFD2 (effect direction: stabilized) (UniProt P13995)”, for which the negative-log EC50 (pEC50) was 3.15.
On to “MTHFSD (effect direction: stabilized) (UniProt Q2M296)”, for which the pEC50 turned out to be 3.62.
With “MTR (effect direction: stabilized) (UniProt Q99707)” the figure was 3.13; with “MYBBP1A (effect direction: destabilized) (UniProt Q9BQG0)”, 2.77; with “MYH9 (effect direction: stabilized) (UniProt P35579)”, 3.6.
In the case of “MYH10 (effect direction: stabilized) (UniProt P35580)” it was 4.1; in that of “NAGK (effect direction: stabilized) (UniProt Q9UJ70)”, 3.15; in that of “NANP (effect direction: destabilized) (UniProt Q8TBE9)”, 3.08.
With “NAP1L1 (effect direction: stabilized) (UniProt P55209)” the figure was less than 2.7; with “NAP1L4 (effect direction: stabilized) (UniProt Q99733)”, less than 2.7.

(Values after the supplement of paper PMC6411743.)
